TGI data for eleven compounds are collected here from PubChem BioAssay (NCI).

Each structure is given as a SMILES string.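 Five compound concentrations were applied to cells in 96-well plates for 48 hours; endpoints were derived by simple linear interpolation of the resulting dose-response curve. The concentration for full growth arrest is given as TGI.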 Where only a bound is given, the exact number is not on record here.

Holding throughout (test): inhibition of tumour cell growth, NCI panel, 48 h
Test [1] deals with RPMI-8226 leukemia.
The subject of test [2] is UACC-62 melanoma.
The test system of test [3] is PC-3 prostate.
Test [4] concerns MDA-N.
The test system of test [5] is DU-145 prostate.
For test [6], the system named is HOP-62 NSCLC.
Test [7] has as its system UO-31 renal.
The subject of test [8] is MDA-MB-231 breast.
For test [9], the system named is SR leukemia.
Test [10] deals with NCI-H522 lung.
For test [11], the system named is KM12 colon.
Test [12] deals with SN12C renal.
For test [13], the system named is OVCAR-4 ovarian.
Test [14] relates to M14 melanoma.
Test [15] concerns SK-MEL-2 melanoma.
Test [16] relates to T-47D breast.
Test [17] relates to NCI-H23 lung.
For test [18], the system named is 786-0 renal.
The subject of test [19] is UACC-257 melanoma.
Test [20] has as its system SF-295 CNS.

On to `CC1(C)COC(c2cccc(C(O)c3ccc(Cl)cc3)c2)=N1` (centres undefined), for which the TGI in [1] is 89.1 µM; in [2], 44.9 µM; in [3], 53.8 µM; in test [4], 70 µM; in test [5] it was above 100 µM; in test [6], 88.6 µM. The TGI in test [7] was 46.7 µM; in test [8] it was above 100 µM; in test [9], above 100 µM; in test [10], above 100 µM; in [11], above 100 µM; in test [12], 73.9 µM. For the same compound, the TGI is above 100 µM in [13]; 45.1 µM in test [14]; 47.5 µM in [15]; 73.9 µM in test [16]; 64.1 µM in [17]; 59.8 µM in test [18].
Regarding `Cc1ccc(N=NC(=O)NNc2ccc(C)cc2Br)c(Br)c1`, the TGI in test [1] was determined as 66.5 µM; in test [2] it was 36.1 µM; in test [3], 72.5 µM; in test [4], 48.3 µM; in [5], 74 µM; in test [6], 41.1 µM. Besides, the TGI was 77.2 µM in test [7]; above 100 µM in test [8]; 90.1 µM in [9]; 55.3 µM in [10]; 79.8 µM in test [19]; 51.2 µM in test [12]. The TGI is above 100 µM in test [13]; 72 µM in [14]; 32 µM in test [15]; above 100 µM in test [16]; above 100 µM in test [17]; 42.4 µM in test [18].
On to `CN1CC=C(C#CC(C)(C)O)CC1`, for which the TGI in test [1], in [2], in test [3], in test [4], in test [5] and in test [6] was above 37.5 µM in each case. Besides, the TGI in test [7], in test [8], in [9], in test [19], in test [20] and in test [11] was above 37.5 µM in each case. The TGI in test [12], in test [13], in test [14], in [15], in test [16] and in [17] was above 37.5 µM each time. The compound further came in with a TGI in test [18] above 37.5 µM.
For the compound `CC(=O)OC1CCn2c1nc1c2C(=O)C=C(N2CC2)C1=O` (centres undefined), the TGI in [1] stood at 1.37 µM; in test [2] it was 0.214 µM; in test [3] it was 2.52 µM; in test [4], 1.06 µM; in test [5] it was 12.7 µM; in [6], 4.69 µM. For the same compound, the TGI in test [7] is 0.35 µM; in test [8], 3.92 µM; in test [9] it was 0.346 µM; in [10], 0.124 µM; in test [19], 1.02 µM; in [20], 5.61 µM. For the same compound, the TGI amounted to 1.86 µM in [12]; 0.231 µM in test [13]; 0.186 µM in test [14]; 0.439 µM in test [15]; 2.38 µM in [16]; 1.08 µM in [17]. This compound yielded a TGI in test [18] of 0.557 µM.
For `CC(NC1=NCCO1)c1ccsc1` (centres undefined), the TGI in [1] is 59.9 µM; in [2] it was 34.3 µM; in test [3], 57.8 µM; in test [4], 65.8 µM; in test [5] it was above 100 µM; in [7] it was above 100 µM. In addition, the TGI worked out at 35.6 µM in [8]; 99.6 µM in test [9]; 35 µM in test [10]; 40.2 µM in test [19]; 39.4 µM in test [20]; 36.1 µM in test [11]. Besides, the TGI was above 100 µM in [13]; 35.4 µM in test [14]; 50.2 µM in test [15]; above 100 µM in test [16]; above 100 µM in test [17]; 42.9 µM in test [18].
With `CC1CCC2C(C)C(OC(=O)CCC(=O)O)OC3OC4(C)CCC1C32OO4` (centres undefined), the TGI in test [1] was 24.1 µM; in [2] it was above 100 µM; in [3] it was above 100 µM; in [4], 38.7 µM; in test [5], 63.4 µM; in test [6], above 100 µM. Also, the TGI in test [7] is 3.88 µM; in test [8] it was above 100 µM; in test [9], 3.37 µM; in test [19], above 100 µM; in test [20] it was above 100 µM; in test [11] it was 23 µM. Further, the TGI in [12] is above 100 µM; in [13], 27.7 µM; in test [14], above 100 µM; in [15], 42.3 µM; in [16], above 100 µM; in test [18], above 100 µM.
Regarding `C=C1C(=O)O[C@H]2C(=O)[C@H](C)CCC/C(C)=C/CC[C@@]3(C)O[C@@H]3C[C@@H]12`, the TGI in test [1] was determined as 4.79 µM; in [2], 16.8 µM; in test [3], 21.2 µM; in test [4] it was 11.5 µM; in test [5] it was 11.1 µM; in test [6], 24.3 µM. In addition, the TGI in [7] amounted to 3.18 µM; in [8] it was 23.3 µM; in test [9], 10.5 µM; in [10] it was 4.06 µM; in test [19] it was 11.7 µM; in test [20], 27.3 µM. For the same compound, the TGI was 22.3 µM in [11]; 18.3 µM in test [12]; 3.28 µM in test [14]; 20.9 µM in test [15]; 4.35 µM in [16]; 29.3 µM in [17]. In addition, the TGI in [18] was 3.02 µM.
As to `CNc1ccc(C)cc1S(=O)(=O)c1ccccc1[N+](=O)[O-]`, the TGI in [1], in test [2], in test [3], in [4], in [5] and in [6] was above 100 µM each time. Besides, the TGI in test [7], in test [8], in [9], in test [10], in test [20] and in test [11] was above 100 µM in each case. The TGI in [12] is above 100 µM; in [13], 92 µM; in test [14], above 100 µM; in test [15], above 100 µM; in test [16], above 100 µM; in [17], above 100 µM. The TGI in test [18] was above 100 µM.
With `c1ccc(CN2C3C4N(Cc5ccccc5)C2C2N(Cc5ccccc5)C(C(N2Cc2ccccc2)N4Cc2ccccc2)N3Cc2ccccc2)cc1`, the TGI in test [1], in test [2], in test [3], in test [4], in [5] and in [6] was above 100 µM in each case. The TGI in [8], in test [9], in [10], in test [19], in test [20] and in test [11] was above 100 µM throughout. The TGI in test [12], in test [14], in test [15], in test [16], in test [17] and in test [18] was above 100 µM in each case.
With `COc1ccc(C[C@@H]2OC3(C=CC(=O)CC3Sc3ccccc3)O[C@H]2Cc2ccc(OC)cc2)cc1` (some centres undefined), the TGI in test [1] is 1.31 µM; in test [2] it was 5.12 µM; in test [3] it was 3.95 µM; in test [4] it was 4.98 µM; in [5] it was 11.6 µM; in test [6], 2.5 µM. The TGI amounted to 2.28 µM in test [7]; 7.35 µM in test [8]; 0.583 µM in test [9]; 3.16 µM in test [19]; 4.69 µM in test [20]; 5.63 µM in [11]. In addition, the TGI in test [12] is 5.22 µM; in test [13], 3.7 µM; in test [14] it was 2.75 µM; in [15] it was 3.05 µM; in [16] it was 3.74 µM; in test [17], 5.16 µM. In addition, the TGI in test [18] amounted to 0.365 µM.
On to `O=c1c2ccccc2nc(-c2ccccc2)n1/N=C/c1ccccc1[N+](=O)[O-]`, for which the TGI is above 100 µM in test [1]; above 100 µM in test [2]; above 100 µM in test [3]; above 100 µM in [4]; above 100 µM in test [5]; 37.1 µM in test [6]. Further, the TGI in test [8] was above 72.8 µM; in test [9], above 100 µM; in test [10], above 100 µM; in test [19], above 100 µM; in test [20], above 83.3 µM; in test [11], above 100 µM. Besides, the TGI in test [12] is above 100 µM; in test [13], above 100 µM; in test [14], above 100 µM; in test [15], above 100 µM; in [16], above 100 µM; in [17], 58.8 µM. This compound displayed a TGI in test [18] above 100 µM.
